{
  "source": "the supplement of paper PMC10307832",
  "experiment_in_all_cases": "relative viability (nuclei count vs DMSO), 5 days (fraction); higher = more cells survive",
  "key": {"UMC-11": {"system": "UMC-11", "outline": "(§1)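 Five library-drug doses in √10 steps were combined with a fixed anchor-drug dose, or a single drug was given alone, by pin tool to lung cancer cell lines in 1536-well plates the day after seeding. Nuclei were stained and counted after 5 days. Relative viability is the nuclei count in treated wells over that in vehicle wells, taken as the median of duplicate plates.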"}, "NCI-H1355": {"system": "NCI-H1355", "outline": "as §1"}, "NCI-H1648": {"system": "NCI-H1648", "outline": "as §1"}, "LCLC-97TM1": {"system": "LCLC-97TM1", "outline": "as §1"}, "NCI-H1623": {"system": "NCI-H1623", "outline": "as §1"}, "NCI-H596": {"system": "NCI-H596", "outline": "as §1"}, "NCI-H23": {"system": "NCI-H23", "outline": "as §1"}, "NCI-H322M": {"system": "NCI-H322M", "outline": "as §1"}, "NCI-H1993": {"system": "NCI-H1993", "outline": "as §1"}},
  "data": [
    {"smiles": "Nc1ccn([C@@H]2O[C@H](CO)[C@@H](O)[C@@H]2O)c(=O)n1", "note": "[Cytarabine] + Cc1cc(Nc2cc(N3CCN(C)CC3)nc(Sc3ccc(NC(=O)C4CC4)cc3)n2)n[nH]1 [Tozasertib] (partner 0.1 µM)", "values": [
      {"measurement": "relative viability", "setting": "UMC-11; first compound 0.005 µM", "value": 0.261},
      {"measurement": "relative viability", "setting": "UMC-11; first compound 0.01581 µM", "value": 0.219},
      {"measurement": "relative viability", "setting": "UMC-11; first compound 0.05 µM", "value": 0.222},
      {"measurement": "relative viability", "setting": "UMC-11; first compound 0.1581 µM", "value": 0.231},
      {"measurement": "relative viability", "setting": "UMC-11; first compound 0.5 µM", "value": 0.2},
      {"measurement": "relative viability", "setting": "NCI-H1355; first compound 0.005 µM", "value": 0.52},
      {"measurement": "relative viability", "setting": "NCI-H1355; first compound 0.01581 µM", "value": 0.524},
      {"measurement": "relative viability", "setting": "NCI-H1355; first compound 0.05 µM", "value": 0.484},
      {"measurement": "relative viability", "setting": "NCI-H1355; first compound 0.1581 µM", "value": 0.269},
      {"measurement": "relative viability", "setting": "NCI-H1355; first compound 0.5 µM", "value": 0.314},
      {"measurement": "relative viability", "setting": "NCI-H1648; first compound 0.005 µM", "value": 0.456},
      {"measurement": "relative viability", "setting": "NCI-H1648; first compound 0.01581 µM", "value": 0.517},
      {"measurement": "relative viability", "setting": "NCI-H1648; first compound 0.05 µM", "value": 0.484},
      {"measurement": "relative viability", "setting": "NCI-H1648; first compound 0.1581 µM", "value": 0.265},
      {"measurement": "relative viability", "setting": "NCI-H1648; first compound 0.5 µM", "value": 0.32},
      {"measurement": "relative viability", "setting": "LCLC-97TM1; first compound 0.005 µM", "value": 0.248},
      {"measurement": "relative viability", "setting": "LCLC-97TM1; first compound 0.01581 µM", "value": 0.247},
      {"measurement": "relative viability", "setting": "LCLC-97TM1; first compound 0.05 µM", "value": 0.235},
      {"measurement": "relative viability", "setting": "LCLC-97TM1; first compound 0.1581 µM", "value": 0.207},
      {"measurement": "relative viability", "setting": "LCLC-97TM1; first compound 0.5 µM", "value": 0.174},
      {"measurement": "relative viability", "setting": "NCI-H1623; first compound 0.005 µM", "value": 0.325},
      {"measurement": "relative viability", "setting": "NCI-H1623; first compound 0.01581 µM", "value": 0.264},
      {"measurement": "relative viability", "setting": "NCI-H1623; first compound 0.05 µM", "value": 0.284},
      {"measurement": "relative viability", "setting": "NCI-H1623; first compound 0.1581 µM", "value": 0.199},
      {"measurement": "relative viability", "setting": "NCI-H1623; first compound 0.5 µM", "value": 0.178},
      {"measurement": "relative viability", "setting": "NCI-H596; first compound 0.005 µM", "value": 1.03},
      {"measurement": "relative viability", "setting": "NCI-H596; first compound 0.01581 µM", "value": 0.945},
      {"measurement": "relative viability", "setting": "NCI-H596; first compound 0.05 µM", "value": 0.712},
      {"measurement": "relative viability", "setting": "NCI-H596; first compound 0.1581 µM", "value": 0.589},
      {"measurement": "relative viability", "setting": "NCI-H596; first compound 0.5 µM", "value": 0.469},
      {"measurement": "relative viability", "setting": "NCI-H23; first compound 0.005 µM", "value": 0.362},
      {"measurement": "relative viability", "setting": "NCI-H23; first compound 0.01581 µM", "value": 0.32},
      {"measurement": "relative viability", "setting": "NCI-H23; first compound 0.05 µM", "value": 0.243},
      {"measurement": "relative viability", "setting": "NCI-H23; first compound 0.1581 µM", "value": 0.55},
      {"measurement": "relative viability", "setting": "NCI-H23; first compound 0.5 µM", "value": 0.244},
      {"measurement": "relative viability", "setting": "NCI-H322M; first compound 0.005 µM", "value": 0.454},
      {"measurement": "relative viability", "setting": "NCI-H322M; first compound 0.01581 µM", "value": 0.416},
      {"measurement": "relative viability", "setting": "NCI-H322M; first compound 0.05 µM", "value": 0.432},
      {"measurement": "relative viability", "setting": "NCI-H322M; first compound 0.1581 µM", "value": 0.364},
      {"measurement": "relative viability", "setting": "NCI-H322M; first compound 0.5 µM", "value": 0.303},
      {"measurement": "relative viability", "setting": "NCI-H1993; first compound 0.005 µM", "value": 0.631},
      {"measurement": "relative viability", "setting": "NCI-H1993; first compound 0.01581 µM", "value": 0.633},
      {"measurement": "relative viability", "setting": "NCI-H1993; first compound 0.05 µM", "value": 0.681},
      {"measurement": "relative viability", "setting": "NCI-H1993; first compound 0.1581 µM", "value": 0.534},
      {"measurement": "relative viability", "setting": "NCI-H1993; first compound 0.5 µM", "value": 0.564}
    ]},
    {"smiles": "CC(=O)O[C@@]12CO[C@@H]1C[C@H](O)[C@@]1(C)C(=O)[C@H](O)C3=C(C)[C@@H](OC(=O)[C@H](O)[C@@H](NC(=O)OC(C)(C)C)c4ccccc4)C[C@@](O)([C@@H](OC(=O)c4ccccc4)[C@H]21)C3(C)C", "note": "[Docetaxel] + Cc1cc(Nc2cc(N3CCN(C)CC3)nc(Sc3ccc(NC(=O)C4CC4)cc3)n2)n[nH]1 [Tozasertib] (partner 0.1 µM)", "values": [
      {"measurement": "relative viability", "setting": "UMC-11; first compound 0.0002 µM", "value": 0.193},
      {"measurement": "relative viability", "setting": "UMC-11; first compound 0.000632 µM", "value": 0.193},
      {"measurement": "relative viability", "setting": "UMC-11; first compound 0.002 µM", "value": 0.218},
      {"measurement": "relative viability", "setting": "UMC-11; first compound 0.006325 µM", "value": 0.227},
      {"measurement": "relative viability", "setting": "UMC-11; first compound 0.02 µM", "value": 0.217},
      {"measurement": "relative viability", "setting": "NCI-H1355; first compound 0.0002 µM", "value": 0.453},
      {"measurement": "relative viability", "setting": "NCI-H1355; first compound 0.000632 µM", "value": 0.43},
      {"measurement": "relative viability", "setting": "NCI-H1355; first compound 0.002 µM", "value": 0.271},
      {"measurement": "relative viability", "setting": "NCI-H1355; first compound 0.006325 µM", "value": 0.263},
      {"measurement": "relative viability", "setting": "NCI-H1355; first compound 0.02 µM", "value": 0.202},
      {"measurement": "relative viability", "setting": "NCI-H1648; first compound 0.0002 µM", "value": 0.449},
      {"measurement": "relative viability", "setting": "NCI-H1648; first compound 0.000632 µM", "value": 0.509},
      {"measurement": "relative viability", "setting": "NCI-H1648; first compound 0.002 µM", "value": 0.28},
      {"measurement": "relative viability", "setting": "NCI-H1648; first compound 0.006325 µM", "value": 0.195},
      {"measurement": "relative viability", "setting": "NCI-H1648; first compound 0.02 µM", "value": 0.155},
      {"measurement": "relative viability", "setting": "LCLC-97TM1; first compound 0.000632 µM", "value": 0.209},
      {"measurement": "relative viability", "setting": "LCLC-97TM1; first compound 0.002 µM", "value": 0.191},
      {"measurement": "relative viability", "setting": "LCLC-97TM1; first compound 0.006325 µM", "value": 0.122},
      {"measurement": "relative viability", "setting": "LCLC-97TM1; first compound 0.02 µM", "value": 0.13},
      {"measurement": "relative viability", "setting": "NCI-H1623; first compound 0.0002 µM", "value": 0.453},
      {"measurement": "relative viability", "setting": "NCI-H1623; first compound 0.000632 µM", "value": 0.367},
      {"measurement": "relative viability", "setting": "NCI-H1623; first compound 0.002 µM", "value": 0.409},
      {"measurement": "relative viability", "setting": "NCI-H1623; first compound 0.006325 µM", "value": 0.42},
      {"measurement": "relative viability", "setting": "NCI-H1623; first compound 0.02 µM", "value": 0.377},
      {"measurement": "relative viability", "setting": "NCI-H596; first compound 0.0002 µM", "value": 0.838},
      {"measurement": "relative viability", "setting": "NCI-H596; first compound 0.000632 µM", "value": 0.754},
      {"measurement": "relative viability", "setting": "NCI-H596; first compound 0.002 µM", "value": 0.365},
      {"measurement": "relative viability", "setting": "NCI-H596; first compound 0.006325 µM", "value": 0.361},
      {"measurement": "relative viability", "setting": "NCI-H596; first compound 0.02 µM", "value": 0.25},
      {"measurement": "relative viability", "setting": "NCI-H23; first compound 0.0002 µM", "value": 0.39},
      {"measurement": "relative viability", "setting": "NCI-H23; first compound 0.000632 µM", "value": 0.314},
      {"measurement": "relative viability", "setting": "NCI-H23; first compound 0.002 µM", "value": 0.195},
      {"measurement": "relative viability", "setting": "NCI-H23; first compound 0.006325 µM", "value": 0.198},
      {"measurement": "relative viability", "setting": "NCI-H23; first compound 0.02 µM", "value": 0.166},
      {"measurement": "relative viability", "setting": "NCI-H322M; first compound 0.0002 µM", "value": 0.479},
      {"measurement": "relative viability", "setting": "NCI-H322M; first compound 0.000632 µM", "value": 0.477},
      {"measurement": "relative viability", "setting": "NCI-H322M; first compound 0.002 µM", "value": 0.49},
      {"measurement": "relative viability", "setting": "NCI-H322M; first compound 0.006325 µM", "value": 0.485},
      {"measurement": "relative viability", "setting": "NCI-H322M; first compound 0.02 µM", "value": 0.476},
      {"measurement": "relative viability", "setting": "NCI-H1993; first compound 0.0002 µM", "value": 0.644},
      {"measurement": "relative viability", "setting": "NCI-H1993; first compound 0.000632 µM", "value": 0.592},
      {"measurement": "relative viability", "setting": "NCI-H1993; first compound 0.002 µM", "value": 0.604},
      {"measurement": "relative viability", "setting": "NCI-H1993; first compound 0.006325 µM", "value": 0.515},
      {"measurement": "relative viability", "setting": "NCI-H1993; first compound 0.02 µM", "value": 0.586}
    ]}
  ]
}
